Measured values: publication PMC7980035 (The Journal of Biological Chemistry, 2021)
Like-named read-outs stand apart in the source and are kept apart here.

Assays:
[1] = target: T1, SARS 3C-like proteinase (Severe acute respiratory syndrome coronavirus, UniProt P0C6X7); conditions: pH 7.3
[2] = assay type: physicochemical; conditions: pH 7.3
[3] = target: T1, SARS 3C-like proteinase; conditions: pH 7.3; remark: listed apart in the source
[4] = target: SARS coronavirus 3C-like proteinase, C-terminal His6 tag (plasmid pET 3CLP-21x) (SARS coronavirus) (UniProt P0C6X7); experiment: SEC
[5] = pH 7.3

Substance | Km [1] [µM] | kcat [1] [s⁻¹] | kcat/Km [1] | Calculated secondary structure content: Helix [2] | Calculated secondary structure content: Other [2] | Calculated secondary structure content: Sheet [2] | Calculated secondary structure content: Tum [2] | kcat/Km [3] | Kd [4] [µM] | solubility [5]
PHTVLQ/AVGAC [Peptide S08] | 1940 ± 660 | 0.028 ± 0.0095 | 0.865 ± 0.028 ^a mM^-1 min^-1 | 5 | 45 | 21 | 29 | – | – | –
TFTRLQ/SLENV [Peptide S10] | 286 ± 20 | 0.0141 ± 0.00085 | 2.96 ± 0.11 ^a mM^-1 min^-1 | 4 | 41 | 22 | 33 | – | – | –
SGVTFQ/GKFKK [Peptide S02] | 583 ± 86 | 0.0425 ± 0.00583 | 4.38 ± 0.26 ^a mM^-1 min^-1 | 3 | 31 | 42 | 24 | – | – | –
SAVKLQ/NNELS [Peptide S05] | – | – | – | 10 | 44 | 19 | 27 | 0.202 ± 0.003 ^b mM^-1 min^-1 | – | –
REPLMQ/SADAS [Peptide S07] | – | – | – | 1 | 41 | 18 | 40 | 0.0176 ± 0.0022 ^b mM^-1 min^-1 | – | –
KVATVQ/SKMSD [Peptide S03] | – | – | – | 2 | 46 | 25 | 28 | 0.353 ± 0.013 ^b mM^-1 min^-1 | – | –
SARS coronavirus 3C-like proteinase, C-terminal His6 tag (plasmid pET 3CLP-21x) (from UniProt P0C6X7 3241-3546) (enzyme) | – | – | – | – | – | – | – | – | 100 | –
FYPKLQ/ASQAW [Peptide S11] | 549 ± 105 | 0.0262 ± 0.00467 | 2.86 ± 0.21 ^a mM^-1 min^-1 | 2 | 36 | 30 | 32 | – | – | –
NRATLQ/AIASE [Peptide S04] | – | – | – | 2 | 45 | 24 | 30 | 0.556 ± 0.126 ^b mM^-1 min^-1 | – | –
NVATLQ/AENVT [Peptide S09] | – | – | – | – | – | – | – | 0.976 ± 0.014 ^b mM^-1 min^-1 | – | very low solubility
ATVRLQ/AGNAT [Peptide S06] | 1440 ± 470 | 0.0548 ± 0.0178 | 2.29 ± 0.09 ^a mM^-1 min^-1 | 2 | 43 | 25 | 30 | – | – | –
